Reference: PubChem BioAssay (NCI)
Values joined by “and” are separate entries in the source; they are usually repeats but may differ in a detail not shown here. Equal values may be shown once.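 These data come from cells grown in 96-well plates and exposed to compound for 48 hours at five concentrations. GI50 marks 50% less growth. TGI: total growth inhibition.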

What was measured:
Test in all cases: growth of human tumour cells (NCI), 48 h
A498 renal = test system: A498 renal
HOP-92 NSCLC = test system: HOP-92 NSCLC
MCF7 breast = test system: MCF7 breast
NCI-H23 lung = test system: NCI-H23 lung
OVCAR-5 ovarian = test system: OVCAR-5 ovarian
OVCAR-8 ovarian = test system: OVCAR-8 ovarian
SK-MEL-2 melanoma = test system: SK-MEL-2 melanoma
SR leukemia = test system: SR leukemia
TK-10 renal = test system: TK-10 renal
UACC-257 melanoma = test system: UACC-257 melanoma

## COC(=O)CC12CC(NC(=O)c3csc([C@@H](C[C@H](C(C)C)N(C)C(=O)[C@@H](NC(=O)[C@H]4CCCCN4C)C(C)C)OC(C)=O)n3)(C1)C2
A498 renal
  GI50: 0.00384 µM and 0.00545 µM
  TGI: 0.0224 µM
HOP-92 NSCLC
  GI50: 0.0174 µM
  TGI: 4.73 µM
MCF7 breast
  GI50: 0.00289 µM and 0.00405 µM
  TGI: > 33.3 µM
NCI-H23 lung
  GI50: 0.0098 µM and 0.0167 µM
  TGI: > 33.3 µM
OVCAR-5 ovarian
  GI50: 0.0049 µM and 0.0165 µM
  TGI: > 33.3 µM
OVCAR-8 ovarian
  GI50: 0.00545 µM and 0.0131 µM
  TGI: > 33.3 µM
SK-MEL-2 melanoma
  GI50: 0.00441 µM and 0.00955 µM
  TGI: > 33.3 µM
SR leukemia
  GI50: 0.00187 µM and 0.00333 µM
  TGI: > 33.3 µM
TK-10 renal
  GI50: 0.415 µM
  TGI: > 33.3 µM
UACC-257 melanoma
  GI50: 23.7 µM
  TGI: > 33.3 µM

## CN(CCNc1ccc(C(=N)N)cc1)c1ccc(C(=N)N)cc1
A498 renal
  GI50: 4.43 µM
  TGI: 44.7 µM
MCF7 breast
  GI50: 30.5 µM
  TGI: > 100 µM
NCI-H23 lung
  GI50: 21.6 µM
  TGI: > 100 µM
OVCAR-5 ovarian
  GI50: > 100 µM
  TGI: > 100 µM
OVCAR-8 ovarian
  GI50: 50 µM
  TGI: > 100 µM
SK-MEL-2 melanoma
  GI50: 18 µM
  TGI: > 100 µM
SR leukemia
  GI50: 28.6 µM
  TGI: > 100 µM
TK-10 renal
  GI50: 53.4 µM
  TGI: > 100 µM
UACC-257 melanoma
  GI50: 35.1 µM
  TGI: > 100 µM

## CC(C)[C@]12O[C@H]1[C@@H]1O[C@]13[C@]1(O[C@H]1C[C@H]1C4=C(CC[C@@]13C)C(=O)OC4)[C@@H]2OC(=O)OC(C)(C)C
A498 renal
  GI50: 0.0145 µM
  TGI: 0.0454 µM
HOP-92 NSCLC
  GI50: 0.0448 µM
MCF7 breast
  GI50: < 0.0144 µM
  TGI: > 100 µM
NCI-H23 lung
  GI50: < 0.01 µM
  TGI: 0.0569 µM
OVCAR-5 ovarian
  GI50: 0.0419 µM
  TGI: > 100 µM
OVCAR-8 ovarian
  GI50: 0.0281 µM
  TGI: > 100 µM
SK-MEL-2 melanoma
  GI50: 0.0185 µM
  TGI: 0.0603 µM
SR leukemia
  GI50: 0.0159 µM
TK-10 renal
  GI50: 0.0329 µM
  TGI: > 100 µM
UACC-257 melanoma
  GI50: 0.0176 µM
  TGI: 0.0544 µM

## CSc1nc(SC)c2cnn(-c3ccnc4cc(Cl)ccc34)c2n1
A498 renal
  GI50: > 100 µM
  TGI: > 100 µM
HOP-92 NSCLC
  GI50: > 63.6 µM
  TGI: > 100 µM
MCF7 breast
  GI50: 2.61 µM
  TGI: > 41 µM
NCI-H23 lung
  GI50: 21.2 µM
  TGI: > 54.9 µM
OVCAR-5 ovarian
  GI50: > 100 µM
  TGI: > 100 µM
OVCAR-8 ovarian
  GI50: > 56.5 µM
  TGI: > 100 µM
SK-MEL-2 melanoma
  GI50: > 44.9 µM
  TGI: > 72.8 µM
SR leukemia
  GI50: 7.88 µM
  TGI: > 31.9 µM
TK-10 renal
  GI50: 30.9 µM
  TGI: > 89.1 µM
UACC-257 melanoma
  GI50: > 49.7 µM
  TGI: > 86.4 µM

## COc1ccc(C(=O)O[C@@H]2CCN3CC[C@H](C)[C@H]23)cc1
A498 renal
  TGI: > 100 µM
HOP-92 NSCLC
  TGI: > 100 µM
MCF7 breast
  TGI: > 100 µM
NCI-H23 lung
  TGI: > 100 µM
OVCAR-5 ovarian
  TGI: > 100 µM
OVCAR-8 ovarian
  TGI: > 100 µM
SK-MEL-2 melanoma
  TGI: > 100 µM
SR leukemia
  TGI: > 100 µM
TK-10 renal
  TGI: > 100 µM
UACC-257 melanoma
  TGI: > 100 µM

## O=C(NCCCNc1cc(-c2cn(-c3ccccc3)nc2-c2cccc(O)c2)ccn1)c1ccc(F)cc1
HOP-92 NSCLC
  GI50: 2.13 µM
  TGI: 7.65 µM
MCF7 breast
  GI50: 2.32 µM
  TGI: 9.92 µM
NCI-H23 lung
  GI50: 2.81 µM
  TGI: 14.8 µM
OVCAR-5 ovarian
  GI50: 2.62 µM
  TGI: 28.6 µM
OVCAR-8 ovarian
  GI50: 4.01 µM
  TGI: 21.2 µM
SK-MEL-2 melanoma
  GI50: 2.18 µM
  TGI: 5.06 µM
SR leukemia
  GI50: 1.65 µM
  TGI: 6.53 µM
TK-10 renal
  GI50: 4.47 µM
  TGI: 26.3 µM
UACC-257 melanoma
  GI50: 1.8 µM
  TGI: 3.87 µM

## Nc1cc2c(c3ccccc13)C(CCl)CN2C(=O)c1cc2cc(NC(=O)c3cc4ccccc4o3)ccc2[nH]1 (configuration not stated)
MCF7 breast
  GI50: > 0.11 µM
  TGI: < 0.11 µM
NCI-H23 lung
  TGI: 0.027 µM and 0.125 µM
OVCAR-5 ovarian
  GI50: > 0.11 µM
  TGI: 138 µM
OVCAR-8 ovarian
  GI50: > 0.11 µM
  TGI: 0.00407 µM and < 0.11 µM
SK-MEL-2 melanoma
  GI50: > 0.11 µM
  TGI: 0.0109 µM and < 0.11 µM
SR leukemia
  GI50: > 0.11 µM
  TGI: 200 µM

## COC(=O)Nc1nc2ccc(C(=O)C3CC3)cc2[nH]1
A498 renal
  GI50: 0.421 µM
MCF7 breast
  GI50: 0.331 µM
  TGI: > 56.1 µM
NCI-H23 lung
  GI50: 0.47 µM
  TGI: > 27.6 µM
OVCAR-5 ovarian
  GI50: 3.25 µM
  TGI: > 56.1 µM
OVCAR-8 ovarian
  GI50: 0.668 µM
  TGI: > 100 µM
SK-MEL-2 melanoma
  GI50: 3.31 µM
  TGI: > 70.1 µM
SR leukemia
  GI50: 0.455 µM
  TGI: > 100 µM
TK-10 renal
  GI50: 1.38 µM
  TGI: 47.2 µM
UACC-257 melanoma
  GI50: 0.417 µM
  TGI: > 100 µM

## CCOC(=O)c1cc2c(OC)cc(OC)cc2oc1=O
A498 renal
  TGI: > 100 µM
HOP-92 NSCLC
  TGI: > 100 µM
MCF7 breast
  TGI: > 100 µM
NCI-H23 lung
  TGI: > 100 µM
OVCAR-5 ovarian
  TGI: > 100 µM
OVCAR-8 ovarian
  TGI: > 100 µM
SK-MEL-2 melanoma
  TGI: > 100 µM
SR leukemia
  TGI: > 100 µM
TK-10 renal
  TGI: > 100 µM
UACC-257 melanoma
  TGI: > 100 µM

## Oc1c(CCl)cc(Cl)cc1Cc1cc(Cl)cc(Cc2cc(Cl)cc(CCl)c2O)c1O
HOP-92 NSCLC
  GI50: 1.91 µM
  TGI: 5.81 µM
MCF7 breast
  GI50: 2.73 µM
  TGI: 10.9 µM
NCI-H23 lung
  GI50: 2.18 µM
  TGI: 7.31 µM
OVCAR-5 ovarian
  GI50: 12.2 µM
  TGI: 38.7 µM
OVCAR-8 ovarian
  GI50: 3.62 µM
  TGI: 30.7 µM
SK-MEL-2 melanoma
  GI50: 2.16 µM
  TGI: 6.82 µM
SR leukemia
  GI50: 2.85 µM
  TGI: 41 µM
TK-10 renal
  GI50: 3.9 µM
  TGI: 24.1 µM
UACC-257 melanoma
  GI50: 4.66 µM
  TGI: 29.9 µM

## ClCCN(CCCl)c1ccc(OCc2ccccc2)cc1
A498 renal
  GI50: 3.54 µM
  TGI: 19.5 µM
MCF7 breast
  GI50: 3.6 µM
  TGI: 35.5 µM
NCI-H23 lung
  GI50: 4.88 µM
  TGI: 36.6 µM
OVCAR-5 ovarian
  GI50: 29 µM
  TGI: > 100 µM
OVCAR-8 ovarian
  GI50: 3.3 µM
  TGI: 75.7 µM
SK-MEL-2 melanoma
  GI50: 13.3 µM
  TGI: 35.4 µM
SR leukemia
  GI50: 0.395 µM
  TGI: 15.5 µM
UACC-257 melanoma
  GI50: 6.3 µM
  TGI: 39.6 µM

## CC[n+]1c(/C=C/c2ccc(N3CCCC3)cc2)cccc1/C=C/c1ccc(N2CCCC2)cc1
A498 renal
  GI50: 0.344 µM and 0.239 µM
  TGI: 1.15 µM and 0.828 µM
HOP-92 NSCLC
  GI50: 0.342 µM
  TGI: 1.41 µM
MCF7 breast
  GI50: 0.213 µM
  TGI: 1.35 µM
NCI-H23 lung
  GI50: 0.0743 µM and 0.0876 µM
  TGI: 0.982 µM and 1.41 µM
OVCAR-5 ovarian
  GI50: 0.476 µM
  TGI: 1.48 µM
OVCAR-8 ovarian
  GI50: 0.248 µM and 0.124 µM
  TGI: 1.61 µM and 0.953 µM
SK-MEL-2 melanoma
  GI50: 0.56 µM
  TGI: 2.38 µM
TK-10 renal
  GI50: 0.359 µM
  TGI: 2.38 µM
UACC-257 melanoma
  GI50: 0.19 µM
  TGI: 0.773 µM

## COc1ccc(/C=C/C(=O)c2ccc(B(O)O)cc2)cc1O
A498 renal
  GI50: 5.47 µM
  TGI: 21.8 µM
HOP-92 NSCLC
  GI50: 3.46 µM
  TGI: 29.8 µM
MCF7 breast
  GI50: 3.48 µM
  TGI: 32.5 µM
NCI-H23 lung
  GI50: 21 µM
  TGI: 69.4 µM
OVCAR-5 ovarian
  GI50: 21.5 µM
  TGI: 69.5 µM
OVCAR-8 ovarian
  GI50: 28.3 µM
  TGI: > 77.9 µM
SK-MEL-2 melanoma
  GI50: 26.1 µM
  TGI: 64.9 µM
SR leukemia
  GI50: 3.2 µM
  TGI: > 100 µM
TK-10 renal
  GI50: 30.4 µM
  TGI: > 67.6 µM
UACC-257 melanoma
  GI50: 21.6 µM
  TGI: 59.3 µM

## Clc1ccc(Nc2ncnc3ccccc23)cc1
A498 renal
  GI50: 17.6 µM
  TGI: 85.8 µM
HOP-92 NSCLC
  GI50: 13.8 µM
  TGI: 73.2 µM
MCF7 breast
  GI50: 30.4 µM
  TGI: > 100 µM
NCI-H23 lung
  GI50: 74.6 µM
  TGI: > 100 µM
OVCAR-5 ovarian
  GI50: > 100 µM
  TGI: > 100 µM
OVCAR-8 ovarian
  GI50: 59.2 µM
  TGI: > 100 µM
SR leukemia
  GI50: 23 µM
  TGI: 60.9 µM
TK-10 renal
  GI50: 2.79 µM
  TGI: 31 µM
UACC-257 melanoma
  GI50: 49.9 µM
  TGI: > 100 µM
